We go through five compounds from publication PMC5225203, “Multiparameter toxicity assessment of novel DOPO-derived organophosphorus flame retardants” (Archives of Toxicology, 2016).

Data set [1] deals with THP-1 monocytes differentiated into macrophages. In words: Acute cytotoxicity, MTS reduction, THP-1 macrophages. Type of data set: cell-based, human. Particulars: 48 h; for cell damage (viability, MTS reduction): concentrations as high as 400 µM; for concentration producing acute toxicity: MTS. On the procedure: The human monocytic cell line THP-1 (ATCC: TIB-202) was grown as cell suspension in complete cell culture medium under standard growth conditions. Subculturing was performed by replacement of the medium when the cell density reached 8 × 10^5 cells/mL. Cell concentrations were not allowed to exceed 10^6 cells/mL. To differentiate THP-1 monocytes into macrophages, cells were grown in the presence of 200 nM phorbol-12-myristate-13-acetate (PMA; Sigma-Aldrich) for 72 h. For viability assessment, 8 × 10^4 cells per well were seeded in 200 µL complete cell culture medium containing 200 nM PMA in a 96-well plate and differentiated for 72 h under standard growth conditions. Thereafter, the medium was removed, the cells were washed twice with pre-warmed phosphate-buffered saline (PBS), and increasing concentrations of flame retardants or CdSO4 were added in 200 µL complete cell culture medium per well for 48 h. CellTiter96® AQueous One Solution (Promega, Switzerland) containing MTS (3-(4,5-dimethylthiazol-2-yl)-5-(3-carboxymethoxy-phenyl)-2-(4-sulfophenyl)-2H) as a water-soluble tetrazolium compound was used according to the manufacturer’s protocol. Absorption was detected at 490 nm.
A general note: Formazan colour is commonly taken as a measure of viable cells.

For a further data set, the system named is Desmodesmus subspicatus. Type of data set: cell-based. On the procedure: Suppl. Fig. 6. Freshwater microalgae toxicity test. Acute toxicity was tested by assessing algal growth inhibition applying Desmodesmus subspicatus according to OECD guideline number 201. Growth inhibition tests were performed using an initial cell density of 5 x 10^3 cells/ml (= OD680 of 0.005). The cells were maintained in 250 mL flasks containing 100 mL of sterile OECD algal medium at 22°C at 130 rpm illuminated with 3000 lux. Cell density was detected photospectrometrically at λ680 nm in 24 h intervals in algae cultures treated with the respective flame retardants. Experiments were performed by BMG Engineering Ltd., […]
(1 picture or pasted object on this page, not shown here)

Data set [2] deals with ARE-dependent luciferase expression in KeratinoSens cells. In words: KeratinoSens skin sensitization assay. The conditions noted are these: for skin sensitizer classification / ARE-dependent luciferase expression: KeratinoSens; for ARE-dependent luciferase expression / cell viability (PrestoBlue) in KeratinoSens cells: 48 h. The class given is cell-based. On the procedure:
Generation of the stable KeratinoSens™ cell line was previously described in detail (Emter et al. [2010]). KeratinoSens™ cells were maintained in DMEM containing glutamax (Gibco/Invitrogen), 9 % FCS, and 0.5 mg/mL G418. For the experiments, KeratinoSens™ cells were seeded onto 96-well plates at a density of 10,000 cells per well in 125 µL medium without G418. After 24 h, the medium was replaced with 200 µL DMEM containing 1 % FCS and the test compounds. After a 2-day incubation period at 37 °C in an atmosphere containing 5 % CO2, the cells were washed once with PBS and a resazurin reduction assay (PrestoBlue®) was carried out in order to compare the viability of the differently treated groups. Fluorescence intensity was measured at 550 nmex and 590 nmem. After another washing step with PBS, cell lysis was performed using 20 µL/well passive lysis buffer (Promega) for 20 min at room temperature. Luciferase activity was measured by applying 50 µL luciferase substrate automatically to each well and detecting the resulting luminescence. Compounds were considered as skin sensitizers when a statistically significant induction of luciferase activity above a defined threshold of ≥1.5 in the absence of impaired cell viability was observed (Emter et al. [2010]; Natsch et al. [2011]).

Data set [3] has as its system neuronal and non-neuronal cell models. In words: Synopsis of all in vitro assays applied in this work. The class given is cell-based, human. Particulars: for cytotoxic effects: at concentrations higher than 100 µM; for IC50: Homo sapiens, read-out: average IC50 values; for concentration with cell type-independent cytotoxic properties: all cellular in vitro models. On the procedure:
IC50 values are defined by the concentration of the flame retardant investigated where the response was reduced by half. Log-transformed flame retardant concentration values and the respective response data were fitted to a four-parameter logistic equation: y=A+B-A/1+(x/C)^D The percent inhibition response data are represented by y; B = maximum of y; A = minimum of y; x = flame retardant concentration; C = IC50; D = Hill slope factor. The IC50 values were calculated from these sigmoidal dose–response curves utilizing Prism 5.0 (GraphPad, San Diego, CA, USA) software.

Data set [4] deals with rat adrenomedullary pheochromocytoma PC12 cells. Particulars: PC12, 24 h, maximal concentration 100 µM; ref Hendriks et al. [2014]; cited from earlier work.
Data set [5] in a line: Penetration into porcine skin by confocal Raman spectroscopy. Particulars: 1 h; for maximal penetration depth: porcine skin surface, 400 µM; for penetration/accumulation into porcine ear skin: topical 400 µM, confocal Raman. The class given is in vitro ADME. On the procedure:
The vertical distribution of topically applied DOPO derivatives and reference compounds was investigated on segments of porcine ears from freshly slaughtered animals. The skin was separated from the cartilage, depilated, and placed into Franz diffusion cells (1 cm^2). The acceptor solution was PBS buffer containing 2 % IGEPAL® CA-630 (Sigma-Aldrich). The test compounds were dispersed at a concentration of 400 µM (2 % in the case of caffeine) in PBS buffer containing 2 % IGEPAL® CA-630, after which 300 µL of this mixture (or a blank solution) was topically applied onto the porcine skin and allowed to penetrate for 60 min. Next, the skin was removed from the Franz cells, gently washed with PBS, and placed onto the optical window of an inverse confocal Raman microscope (Model 3510 SCA, River Diagnostics) equipped with a 60 × oil-immersion objective. The 785-nm excitation laser was used to acquire spectra in the fingerprint region (400–1800 cm^−1, 5 s integration time) starting from the surface of the skin and extending to a depth of 60 µm (2 µm step size). The acquisition was repeated for at least five positions. The averaged concentration profiles of the flame retardants and reference compounds were extracted by fitting (unrestricted classical least squares, third-order polynomial baseline) the Raman spectra with the reference spectra of keratin (as representative of all proteins), water, ceramide 3, cholesterol (as representatives of all lipids), natural moisturizing factor (NMF; fixed composition), lactate, urea, and solid test compounds using Skin Tools 2.0 software (River Diagnostics). The concentrations of the test substances are given as the molar fraction relative to keratin rather than correcting for the Raman signal attenuation using mathematical models (Franzen et al. [2013]). The response factors of the test compounds were determined against BSA solutions assuming similar Raman cross sections for keratin and BSA as described in the literature (Caspers et al. [2001]; Fleischli et al. [2013], [2015]). Because EDA-DOPO, ETA-DOPO, and EG-DOPO were only partially soluble in chloroform, their spectra were calibrated against DOPO with the assumption of the same Raman cross section for the biphenyl group. Because of the nature of the unrestricted fit, negative fitting coefficients can be obtained and the values must be compared to those of the blank sample. The fitting coefficients of the blank, untreated skin were also used to estimate the level of detection. The depth resolution of the confocal microscope was determined to be 8 µm at FWHM, leaving an uncertainty of approximately 4 µm in differentiating between truly permeated compounds and compounds sitting at the surface of the skin.

[6] abbreviates: at concentrations ≤400 µM (abstract).
The mark [7] stands for this setting: highest tested concentrations, water-soluble fraction of 1000 mg/L (approximately 2 mM).

Like-named read-outs stand apart in the source and are kept apart here. Some results are limits rather than exact numbers.

The IC50 is the concentration that inhibits the measured activity by half.

Regarding `O=[PH]1Oc2ccccc2-c2ccccc21` (centres unmarked) [DOPO, 9,10-dihydro-9-oxa-10-phosphaphenanthrene-10-oxide], in data set [1], the “cell damage (viability, MTS reduction)” value was “no signs of cell damage”. In the data set on Desmodesmus subspicatus (setting [6]), the algae growth entry is “nor did they affect algae growth or daphnia viability”. In addition, in data set [2], the skin sensitizer classification entry is “No specific effects” and the ARE-dependent luciferase expression entry is on record as “neither induced luciferase activity”. The cytotoxic effects entry in data set [3] is “no comparable effects”. In addition, the “influence on all parameters investigated” value in data set [3] (concentrations up to 400 µM) is listed as “no influence”. Besides, the “alterations in cell viability, generation of reactive oxygen species, or intracellular Ca2+ levels” value in data set [4] is reported as “no signs of alterations”.
As for `O=P1(NCCNP2(=O)Oc3ccccc3-c3ccccc32)Oc2ccccc2-c2ccccc21` (centres unmarked) [EDA-DOPO, 6,6′-(ethane-1,2-diylbis(azanediyl))bis(6H-dibenzo[c,e][1,2]oxaphosphinine-6-oxide)], the “cell damage (viability, MTS reduction)” value in data set [1] is on record as “no signs of cell damage”. The algae growth result in the data set with Desmodesmus subspicatus (setting [6]) is recorded as “nor did they affect algae growth or daphnia viability”; in the data set with Desmodesmus subspicatus (setting [7]), “no effect”. Further, in data set [2], the skin sensitizer classification result is “No specific effects”. For the same compound, in data set [2], the ARE-dependent luciferase expression entry is “neither induced luciferase activity”. Besides, the harmful effects entry in data set [3] (all assays utilized) is listed as “no harmful effects”. For the same compound, in data set [3], the cytotoxic effects result was “no comparable effects”.
In the case of `O=P1(OCCOP2(=O)Oc3ccccc3-c3ccccc32)Oc2ccccc2-c2ccccc21` (centres unmarked) [EG-DOPO, 6,6′-(ethane-1,2-diylbis(oxy))bis(6H-dibenzo[c,e][1,2]oxaphosphinine-6-oxide)], the “concentration producing acute toxicity” value in data set [1] is given as over 20 µM. The algae growth result in the data set on Desmodesmus subspicatus (setting [7]) is “inhibited algae growth”. Further, in data set [2], the “cell viability (PrestoBlue) in KeratinoSens cells” value (“cell viability (PrestoBlue)” for short) is on record as “decline in cell viability”, the skin sensitizer classification result is given as “No specific effects” and the ARE-dependent luciferase expression result is listed as “increase in ARE-dependent luciferase expression”. Also, in data set [3], the concentration for half-maximal inhibition (IC50) was 20 to 100 µM and the “concentration with cell type-independent cytotoxic properties” value is over 10 µM.
For the compound `O=P1(NCCOP2(=O)Oc3ccccc3-c3ccccc32)Oc2ccccc2-c2ccccc21` (centres unmarked) [ETA-DOPO, 6-(2-((6-oxido-6H-dibenzo[c,e][1,2]oxaphosphinin-6-yl)amino)ethoxy)-6H-dibenzo[c,e][1,2]oxaphosphinine 6-oxide], in data set [1], the “concentration producing acute toxicity” value is recorded as over 20 µM. Moreover, the algae growth result in the data set with Desmodesmus subspicatus (setting [7]) was “no effect”. Besides, in data set [5], the maximal penetration depth entry is listed as “less than 8 µm” and the “penetration/accumulation into porcine ear skin” value is on record as “significant accumulation”. Further, in data set [2], the “cell viability (PrestoBlue)” value was “decline in cell viability”, the skin sensitizer classification result was “No specific effects” and the ARE-dependent luciferase expression entry is “increase in ARE-dependent luciferase expression”. Also, in data set [3], the IC50 lay in the range of 20 to 100 µM and the “concentration with cell type-independent cytotoxic properties” value is listed as over 10 µM.
Regarding `Brc1ccc(Oc2cc(Br)c(Br)cc2Br)c(Br)c1` [PBDE-99, reference compound], the “cell damage (viability, MTS reduction)” value in data set [1] was “no signs of cell damage”. Moreover, in data set [5], the maximal penetration depth entry is reported as “less than 8 µm” and the “penetration/accumulation into porcine ear skin” value is listed as “moderate accumulation”. For the same compound, in data set [2], the “cell viability (PrestoBlue)” value is “absence of significant cell death”. The “increase in ARE-dependent luciferase expression” value in data set [2] (at a concentration of 3 µM, in the absence of significant cell death) is listed as “ca. twofold”. The “concentration with distinct neuro-selective cytotoxicity” value in data set [3] (abstract) is at least 10 µM. In addition, the “concentration detrimentally influencing central and peripheral neurons” value in data set [3] (central and peripheral neurons) is reported as over 10 µM. Further, in data set [3] (macrophages, lung epithelial cells, keratinocytes, concentrations as high as 400 µM), the “toxicity in non-neuronal models” value is given as “no significant toxicity”.
